Square brackets hold non-standard residues; d marks the D form. Peptide text beside a SMILES is read from it. pY = N[C@@H](Cc1ccc(OP(=O)(O)O)cc1)C(=O)O; pS = N[C@@H](COP(=O)(O)O)C(=O)O

This test deals with T1, His6STAT3^127-715 (Homo sapiens, UniProt P40763).
T1 construct: made in house; host or cells: E. coli BL21 (DE3)
Briefly: Biolayer interferometry (BLI): SteE^138-148 phosphopeptides binding to recombinant STAT3. Conditions: Octet R8, 25 °C, biotinylated peptide immobilised on streptavidin sensors, pH 7.7, 0.005% Tween-20, steady-state one-site fit, read-out: Kd (affinity of SteE^138-148 phosphorylated peptide for STAT3). Here is the method: Recombinant Salmonella Typhimurium His6-SteE^ΔN20 and human His6-STAT3^127-715 were ligated into pET49 vector using Gibson Assembly; the N-terminal His6-tag is cleavable with HRV 3 C protease.
Binding affinities of His6-STAT3^127-715 to SteE peptides were derived from […] measured on an Octet R8 system (Sartorius) at 25 °C. Biotinylated SteE peptides were synthesised by the Chemical Biology Science Technology Platform at the Francis Crick Institute and dissolved from lyophilised stock in the respective protein buffer to which 0.005% Tween-20 was added (BLI buffer). Appropriate serial dilutions of His6-STAT3^127-715 were prepared in 25 mM HEPES, 200 mM NaCl, 10 mM MgCl2, 0.5 mM TCEP at pH 7.7. SteE peptides were immobilised on Streptavidin (SA) sensors at 0.2 µg/mL by incubation until the linear signal increase started to plateau (up to 160 s), followed by a sensor wash in BLI buffer for 50 s to stabilise the baseline. Association was recorded by incubating the sensors with His6-STAT3^127-715 for 300 s. Subsequent dissociation in BLI buffer was followed for up to 300 s. Data were acquired using Octet BLI Discovery software 12.2.2.20 and processed with Octet BLI Analysis software 12.2.2.4 by subtraction of reference wells without protein and y alignment of the data to the baseline. […]

T1 sequence (P40763 127-715): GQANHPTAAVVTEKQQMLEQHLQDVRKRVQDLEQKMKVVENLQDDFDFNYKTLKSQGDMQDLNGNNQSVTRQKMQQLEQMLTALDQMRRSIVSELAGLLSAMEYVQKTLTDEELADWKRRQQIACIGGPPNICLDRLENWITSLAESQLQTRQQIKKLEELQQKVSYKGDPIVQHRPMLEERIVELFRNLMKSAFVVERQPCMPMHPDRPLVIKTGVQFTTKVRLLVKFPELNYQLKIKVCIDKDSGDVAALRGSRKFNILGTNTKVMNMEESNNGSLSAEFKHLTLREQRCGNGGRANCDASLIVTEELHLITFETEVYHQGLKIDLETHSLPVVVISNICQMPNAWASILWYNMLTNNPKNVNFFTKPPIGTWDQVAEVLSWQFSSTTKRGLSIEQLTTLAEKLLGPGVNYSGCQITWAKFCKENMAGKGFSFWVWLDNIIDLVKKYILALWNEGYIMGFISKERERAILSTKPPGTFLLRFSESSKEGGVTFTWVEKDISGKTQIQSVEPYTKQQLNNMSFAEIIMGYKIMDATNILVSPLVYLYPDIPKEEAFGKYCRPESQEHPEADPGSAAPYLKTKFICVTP

For the compound `CC[C@H](C)[C@H](NC(=O)[C@H](Cc1ccc(OP(=O)(O)O)cc1)NC(=O)CNC(=O)[C@H](COP(=O)(O)O)NC(=O)[C@@H]1CCCN1C(=O)[C@@H]1CCCN1C(=O)[C@@H](N)CC(N)=O)C(=O)N[C@@H](C)C(=O)N[C@@H](CCC(N)=O)C(=O)N[C@@H](Cc1ccc(O)cc1)C(=O)N[C@@H](CCCNC(=N)N)C(=O)O` [SteE_pS141pY143] (H-NPP[pS]G[pY]IAQYR-OH), the Kd was found to be 1400 ± 80 nM.
